A short description of data set [1]: Ex vivo stability in rat tissue extracts from liver, lung and kidney (HPLC). The format is in vitro ADME. The following applies: Wistar, after 24 hours, read-out: parent remaining. How it is done: Liver, lung and kidneys were collected from Wistar rats and resuspended in nine volume of PBS. The tissues were homogenized for 3×15 sec. on ice with a Polytron homogenizer and were centrifuged at 3000 rpm for 15 min. at 4° C. The supernatant was collected and kept at −80° C. until used.
Stability studies were initiated by adding the peptide […] to 50–100 μl of either plasma, serum or extract (10–100 μM final concentration) and incubated for 10 min to 24 hours at 37° C. The reaction was stopped by the addition of ice-cold acetonitrile (75% final concentration) containing 10 μM Lys-desArg^9BK (which serves as an internal control). The samples were vortexed and centrifuged at 13000 rpm for 20 min at 4° C. in a microfuge. The clear supernatant was transferred to a 1 ml tube and the samples were evaporated to dryness by lyophilisation. Finally, the samples were resuspended in 50 μl of HPLC-grade water.
Quantitative analysis of the extracted compound and standard controls was carried out using an Agilent reverse-phase HPLC (model 1100) coupled to a 4.6×150 mm Zorbax 300SB-C18 column (5 μm particle size) and equipped with a diode array detector. […] The elution positions and quantification of compounds were determined by following the absorbance at 226 nm. […]

A further data set concerns STZ diabetic mice. As to the kind of experiment: Hot plate test, type-1 diabetic hyperalgesia. In kind it is in vivo. The following applies: STZ diabetic mice, i.p., at time of maximal inhibition (20 min). On the procedure:
Male CD-1 mice weighting between 25–30 g (Charles River Breeding Laboratory, St-Constant, QC, Canada) were used. The mice were housed four by cage with free access to food and water. They were maintained under conditions of standard lighting, (alternating 12-h light/dark cycle), temperature (22±0.5° C.) and humidity (60±10%) with food and water available at libitum. Animals were used only once in a given experiment. Experiments were conducted between 10:00 and 18:00 h.
Streptozotocin (Pharmacia & Upjohn Incorporation, Mississauga, ON, Canada) was dissolved in saline at a pH of 4.5 and administered to mice i.p. The BKB1 agonist desArg^9BK and compound c were dissolved in saline and administered to mice i.p.
Insulin-dependent diabetes mellitus (IDDM) was induced in mice using STZ. Male CD-1 mice were given a single high i.p. dose of STZ (200 mg/kg) (McEvoy et al., 1984, J Clin Invest 74, 715–722). […] Blood glucose levels were determined with an automatic analyzer (Glucometer Elite XL, Bayer Incorporation, Toronto, Ontario, Canada) using glucose oxidase/potassium ferricyanide reagent strips. […]
The hot plate test was adapted from the technique of Eddy and Leimbach (1953, J Pharmacol Exp Ther 107, 385–389). […] When the pain threshold is reached the animal starts to react by licking its hind paw or to jump, and the reaction time is recorded with a built-in timer, with a maximum cut-off time of 30 s to avoid tissue damage. […]
The effect of the selected drugs on nociception was determined by converting the hot plate, the plantar stimulation, the tail immersion or the tail flick responses from latencies into MPE (Maximum Percent Effect) according to the following equation (Bhargava and Zhao, 1996, Neuropeptides, 30, 219–223): […]
In all tests, pre-treatment latencies were determined three times with an interval of 24 h starting three days before the injection of STZ or saline and the mean was calculated in order to obtain stable pre-drug response latency. […]

Data set [2] is described as follows: Circulatory half-life in rat plasma after bolus i.v. administration. In kind it is in vivo. The following applies: iv, 2.5 mg/kg body weight, direct i.v. jugular administration, anaesthetized rats. How it is done: Rats were anesthetized with the administration of ketamine/xylazine (100 mg/ml:0.1 ml/100 g, i.p.). For ex vivo analysis, blood was collected by cardiac puncture and placed into 5 ml vacutainer tubes containing 0.5 ml of 0.1 M Na2CO3 (for blood and plasma). For in vivo analysis, the drug was administered by i.v. bolus (2.5 mg/kg body weight) in the jugular vein of anesthetized rats and blood was collected as described above after 2, 5, 15, 30, 60, 120, 180 and 240 min.
Quantitative analysis of the extracted compound and standard controls was carried out using an Agilent reverse-phase HPLC (model 1100) coupled to a 4.6×150 mm Zorbax 300SB-C18 column (5 μm particle size) and equipped with a diode array detector. The peptides were eluted at a flow rate of 0.7 ml/min. with a linear gradient ranging from 5 to 65% of acetonitrile/TFA 0.05%/water over 32 min. at 25° C. The elution positions and quantification of compounds were determined by following the absorbance at 226 nm.
Concentrations of the peak's products were estimated using a computer software program (Chemstation for LC 3D, Agilent) that controlled all the chromatography operations.

Molecules are shown by their SMILES. Square brackets hold non-standard residues; d marks the D form. Peptide text beside a SMILES is read from it. Oic = O=C(O)[C@@H]1C[C@@H]2CCCC[C@@H]2N1; d2Nal = N[C@H](Cc1ccc2ccccc2c1)C(=O)O; αMeF = C[C@](N)(Cc1ccccc1)C(=O)O; Orn = NCCC[C@H](N)C(=O)O Some results are limits rather than exact numbers.

For orientation: amount remaining means the share of the starting amount still present when the sample was taken. By half-life is commonly meant the time needed for the level to fall by half in the phase considered.

Regarding `CC[C@H](C)[C@H](NC(=O)[C@@H](Cc1ccc2ccccc2c1)NC(=O)[C@H](CO)NC(=O)[C@](C)(Cc1ccccc1)NC(=O)CNC(=O)[C@@H]1CCCN1C(=O)[C@@H]1C[C@@H]2CCCC[C@@H]2N1C(=O)[C@H](CCCNC(=N)N)NC(=O)[C@H](CCCN)NC(C)=O)C(=O)O` [compound c, Ac-Orn[Oic^2,(α-Me)Phe^5,D-βNal^7,Ile^8]desArg^9BK] (Ac-[Orn]R[Oic]PG[αMeF]S[d2Nal]I-OH), the share remaining at 24 h in data set [1] was > 75%. The ID50 in the data set with STZ diabetic mice was found to be 0.078 ± 0.003 mg/kg. Besides, the half-life in data set [2] was > 2 h.

(Values after patent publication US7211566B2 (Universite De Sherbrooke, priority 2003, dated 2007).)
